The data set relates to rats. Description: Bile secretion. The data set is classed as in vivo. On the procedure:
Rats were anaesthetized with urethane (25% w/v; 0.6 ml/100 g bw, ip). A catheter was placed in the jugular vein for Compound I administration. Abdominal cavity was opened by midline incision and the common bile duct was cannulated to measure the biliary secretion which was collected over 2 hours duration. The total bile excreted was compared between control (untreated) and Compound I treated rats [Shetler, T., Bendele, A., Buening, M., Clemens, J., Colbert, W., Deldar, A., Helton, D., Mc Grath J., Shannon, H., Turk, J., Williams, P., General Pharmacology of Loracarbef in Animals. Arzneim-Forsch./Drug Res. 43 (1993) 1-6].

With `COc1cc(C=O)cc2c1[nH]c1ccccc12` [Compound I, 1-methoxy-3-formyl-9H carbazole], where the note is “25 mg/kg i.v.”, the “Bile (grams ± SEM) After” value is reported as 1.390 ± 0.06 grams and the “Bile (grams ± SEM) Before” value was 1.285 ± 0.049 grams. Under “50 mg/kg i.v.”, the “Bile (grams ± SEM) After” value was determined as 1.125 ± 0.125 grams and the “Bile (grams ± SEM) Before” value was found to be 1.305 ± 0.145 grams. For the same molecule, the “change in the mass of bile collected” value (25 and 50 mg/kg intravenously) is “no significant change in the mass of bile collected”.

The record behind these values is patent US8519154B2, “Method for treatment of bronchial asthma” (Council of Scientific & Industrial Research, priority 2011, dated 2013).
